Assay results published in patent US12077503B2, “Substituted cyclic amides and their use as herbicides” (FMC CORPORATION, priority 2015, dated 2024).
Read-outs that look alike come from different tables or passages of the source.

Columns and labels:
Assay type in all cases: in vivo
[1] = test system: ragweed (common ragweed, Ambrosia elatior); experiment: Test A postemergence; conditions: Ambrosia artemisiifolia, post-emergence, 240 h; for pest or weed control at 125 g/ha: 125 g ai/ha
Method in brief: (§1)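 Preemergence soil spray on seeded pots or post-emergence spray on 1–2 leaf plants, in loam–sand blend. Greenhouse ~10 d. Visual rating 0–100 against untreated plants.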

[2] = test system: barnyardgrass (Echinochloa crus-galli); experiment: Test A postemergence; conditions: Echinochloa crus-galli, post-emergence, 240 h; for pest or weed control at 125 g/ha: 125 g ai/ha
Method in brief: as §1

[3] = test system: wheat (Triticum aestivum); experiment: Test A postemergence; conditions: Triticum aestivum, post-emergence, 240 h; for plant injury at 125 g/ha: 125 g ai/ha
Method in brief: as §1

[4] = test system: Galium (catchweed bedstraw, Galium aparine); experiment: Test A postemergence; conditions: Galium, post-emergence, 240 h; for pest or weed control at 125 g/ha: 125 g ai/ha
Method in brief: as §1

[5] = test system: giant foxtail (Setaria faberii); experiment: Test A postemergence; conditions: Setaria faberi, post-emergence, 240 h; for pest or weed control at 125 g/ha: 125 g ai/ha
Method in brief: as §1

[6] = test system: ryegrass, Italian (Italian ryegrass, Lolium multiflorum); experiment: Test A postemergence; conditions: Lolium multiflorum, post-emergence, 240 h; for pest or weed control at 125 g/ha: 125 g ai/ha
Method in brief: as §1

[7] = test system: blackgrass (Alopecurus myosuroides); experiment: Test A postemergence; conditions: Alopecurus myosuroides, post-emergence, 240 h; for pest or weed control at 125 g/ha: 125 g ai/ha
Method in brief: as §1

corn (Zea mays) = experiment: Test A postemergence; conditions: Zea mays, post-emergence, 240 h
Method in brief: as §1

Kochia (Kochia scoparia) [8] = experiment: Test A postemergence; conditions: Bassia scoparia, post-emergence, 240 h; for pest or weed control at 125 g/ha: 125 g ai/ha
Method in brief: as §1

[9] = test system: pigweed (Amaranthus retroflexus); experiment: Test A postemergence; conditions: Amaranthus retroflexus, post-emergence, 240 h; for pest or weed control at 125 g/ha: 125 g ai/ha
Method in brief: as §1

[10] = test system: ragweed (common ragweed, Ambrosia elatior); experiment: Test A preemergence; conditions: Ambrosia artemisiifolia, pre-emergence, 240 h, read-out: Plant response rating, Ragweed; for pest or weed control at 500 g/ha: 500 g ai/ha; for pest or weed control at 125 g/ha: 125 g ai/ha
Method in brief: as §1

[11] = test system: barnyardgrass (Echinochloa crus-galli); experiment: Test A preemergence; conditions: Echinochloa crus-galli, pre-emergence, 240 h, read-out: Plant response rating, Barnyardgrass; for pest or weed control at 500 g/ha: 500 g ai/ha; for pest or weed control at 125 g/ha: 125 g ai/ha
Method in brief: as §1

[12] = test system: ryegrass, Italian (Italian ryegrass, Lolium multiflorum); experiment: Test A preemergence; conditions: Lolium multiflorum, pre-emergence, 240 h, read-out: Plant response rating, Ryegrass, Italian; for pest or weed control at 500 g/ha: 500 g ai/ha; for pest or weed control at 125 g/ha: 125 g ai/ha
Method in brief: as §1

Kochia (Kochia scoparia) [13] = experiment: Test A preemergence; conditions: Bassia scoparia, pre-emergence, 240 h, read-out: Plant response rating, Kochia; for pest or weed control at 500 g/ha: 500 g ai/ha; for pest or weed control at 125 g/ha: 125 g ai/ha
Method in brief: as §1

[14] = test system: pigweed (Amaranthus retroflexus); experiment: Test A preemergence; conditions: Amaranthus retroflexus, pre-emergence, 240 h, read-out: Plant response rating, Pigweed; for pest or weed control at 500 g/ha: 500 g ai/ha; for pest or weed control at 125 g/ha: 125 g ai/ha
[15] = preemergence, 0 to 100 scale (0 no effect, 100 complete control)
[16] = Preemergence, 0 to 100 scale (0 no effect, 100 complete control)
[17] = preemergence, visual rating after approx. 10 d, 0 to 100 scale where 0 is no effect and 100 is complete control
[18] = preemergence, 0 to 100 scale, 0 = no effect, 100 = complete control

Compound `C=CN1C[C@H](c2ccc(C)c(F)c2)[C@@H](C(=O)Nc2cccc(F)c2F)C1=O` (racemic) [Compound 1332] has a pest or weed control at 125 g/ha ([1]; Postemergence, visual rating about 10 d after treatment, read-out: Ragweed plant response rating (0 to 100 scale)) of 0%, a pest or weed control at 500 g/ha ([1]; Postemergence, 500 g ai/ha, visual injury, 0 to 100 scale (0 no effect, 100 complete control), approx. 10 d, read-out: Plant response rating, Ragweed) of 20% and a pest or weed control at 125 g/ha ([2]; Postemergence, visual rating about 10 d after treatment, read-out: Barnyardgrass plant response rating (0 to 100 scale, 0 no effect, 100 complete control)) of 50%. It also gave a pest or weed control at 500 g/ha ([2]; Postemergence, 500 g ai/ha, visual injury, 0 to 100 scale (0 no effect, 100 complete control), approx. 10 d, read-out: Plant response rating, Barnyardgrass) of 60%, a plant injury at 125 g/ha ([3]; Postemergence, visual rating about 10 d after treatment, read-out: Wheat plant response rating (0 to 100 scale)) of 0% and a plant injury at 500 g/ha ([3]; Postemergence, 500 g ai/ha, visual injury, 0 to 100 scale (0 no effect, 100 complete control), approx. 10 d, read-out: Plant response rating, Wheat) of 20%. The pest or weed control at 125 g/ha ([4]; Postemergence, visual rating about 10 d after treatment, read-out: Galium plant response rating (0 to 100 scale)) was 0%, the pest or weed control at 500 g/ha ([4]; Postemergence, 500 g ai/ha, visual injury, 0 to 100 scale (0 no effect, 100 complete control), approx. 10 d, read-out: Plant response rating, Galium) was 20% and the pest or weed control at 125 g/ha ([5]; Postemergence, visual rating about 10 d after treatment, read-out: Foxtail, Giant plant response rating (0 to 100 scale)) was 40%. For the same compound, the pest or weed control at 500 g/ha ([5]; Postemergence, 500 g ai/ha, visual injury, 0 to 100 scale (0 no effect, 100 complete control), approx. 10 d, read-out: Plant response rating, Foxtail, Giant) was 60%, the pest or weed control at 125 g/ha ([6]; Postemergence, visual rating about 10 d after treatment, read-out: Ryegrass, Italian plant response rating (0 to 100 scale)) was 0% and the pest or weed control at 500 g/ha ([6]; Postemergence, 500 g ai/ha, visual injury, 0 to 100 scale (0 no effect, 100 complete control), approx. 10 d, read-out: Plant response rating, Ryegrass, Italian) was 0%. It also gave a pest or weed control at 125 g/ha ([7]; Postemergence, visual rating about 10 d after treatment, read-out: Blackgrass plant response rating (0 to 100 scale)) of 0%, a pest or weed control at 500 g/ha ([7]; Postemergence, 500 g ai/ha, visual injury, 0 to 100 scale (0 no effect, 100 complete control), approx. 10 d, read-out: Plant response rating, Blackgrass) of 30% and a plant injury at 125 g/ha (corn (Zea mays); 125 g ai/ha, Postemergence, visual rating about 10 d after treatment, read-out: Corn plant response rating (0 to 100 scale)) of 0%. The Corn plant response rating (crop injury, 0 = no effect, 100 = complete kill) at 500 g/ha (corn (Zea mays); Postemergence, 500 g ai/ha, visual injury, 0 to 100 scale (0 no effect, 100 complete control), approx. 10 d) was 0%, the pest or weed control at 125 g/ha (Kochia (Kochia scoparia) [8]; Postemergence, visual rating about 10 d after treatment, read-out: Kochia plant response rating (0 to 100 scale)) was 0% and the pest or weed control at 500 g/ha (Kochia (Kochia scoparia) [8]; Postemergence, 500 g ai/ha, visual injury, 0 to 100 scale (0 no effect, 100 complete control), approx. 10 d, read-out: Plant response rating, Kochia) was 0%. It also gave a pest or weed control at 125 g/ha ([9]; Postemergence, visual rating about 10 d after treatment, read-out: Pigweed plant response rating (0 to 100 scale)) of 0%, a pest or weed control at 500 g/ha ([9]; Postemergence, 500 g ai/ha, visual injury, 0 to 100 scale (0 no effect, 100 complete control), approx. 10 d, read-out: Plant response rating, Pigweed) of 0% and a pest or weed control at 500 g/ha [10, 15] of 0%. For the same compound, the pest or weed control at 125 g/ha [10, 16] was 0%, the pest or weed control at 500 g/ha [11, 15] was 90% and the pest or weed control at 125 g/ha [11, 16] was 70%. For the same compound, the pest or weed control at 500 g/ha [12, 15] was 0%, the pest or weed control at 125 g/ha [12, 16] was 0% and the pest or weed control at 500 g/ha (Kochia (Kochia scoparia) [13]; [15]) was 0%. It also gave a pest or weed control at 125 g/ha (Kochia (Kochia scoparia) [13]; [16]) of 0%, a pest or weed control at 500 g/ha [14, 15] of 0% and a pest or weed control at 125 g/ha [14, 16] of 0%.
Work on `Cc1cc([C@H]2CNC(=O)[C@@H]2C(=O)Nc2ccccc2F)ccc1F` [Compound 717] yielded a pest or weed control at 125 g/ha ([1]; postemergence, visual injury after approximately 10 d, 0 to 100 scale (0 no effect, 100 complete control), read-out: Plant response rating, Ragweed) of 0%, a pest or weed control at 125 g/ha ([2]; postemergence, visual injury after approximately 10 d, 0 to 100 scale (0 no effect, 100 complete control), read-out: Plant response rating, Barnyardgrass) of 90% and a plant injury at 125 g/ha ([3]; postemergence, visual injury after approximately 10 d, 0 to 100 scale (0 no effect, 100 complete control), read-out: Plant response rating, Wheat) of 0%. For the same compound, the pest or weed control at 125 g/ha ([4]; postemergence, visual injury after approximately 10 d, 0 to 100 scale (0 no effect, 100 complete control), read-out: Plant response rating, Galium) was 40%, the pest or weed control at 125 g/ha ([5]; postemergence, visual injury after approximately 10 d, 0 to 100 scale (0 no effect, 100 complete control), read-out: Plant response rating, Foxtail, Giant) was 30% and the pest or weed control at 125 g/ha ([6]; postemergence, visual injury after approximately 10 d, 0 to 100 scale (0 no effect, 100 complete control), read-out: Plant response rating, Ryegrass, Italian) was 0%. For the same compound, the pest or weed control at 125 g/ha ([7]; postemergence, visual injury after approximately 10 d, 0 to 100 scale (0 no effect, 100 complete control), read-out: Plant response rating, Blackgrass) was 0%, the Corn plant response rating (crop injury, 0 = no effect, 100 = complete kill) at 125 g/ha (corn (Zea mays); 125 g ai/ha, postemergence, visual injury after approximately 10 d, 0 to 100 scale (0 no effect, 100 complete control)) was 0% and the pest or weed control at 125 g/ha (Kochia (Kochia scoparia) [8]; postemergence, visual injury after approximately 10 d, 0 to 100 scale (0 no effect, 100 complete control), read-out: Plant response rating, Kochia) was 20%. For the same compound, the pest or weed control at 125 g/ha ([9]; postemergence, visual injury after approximately 10 d, 0 to 100 scale (0 no effect, 100 complete control), read-out: Plant response rating, Pigweed) was 0%, the pest or weed control at 125 g/ha [10, 17] was 0% and the pest or weed control at 500 g/ha [10, 18] was 40%. It also gave a pest or weed control at 125 g/ha [11, 17] of 90%, a pest or weed control at 500 g/ha [11, 18] of 90% and a pest or weed control at 125 g/ha [12, 17] of 0%. For the same compound, the pest or weed control at 500 g/ha [12, 18] was 30%, the pest or weed control at 125 g/ha (Kochia (Kochia scoparia) [13]; [17]) was 0% and the pest or weed control at 500 g/ha (Kochia (Kochia scoparia) [13]; [18]) was 60%. For the same compound, the pest or weed control at 125 g/ha [14, 17] was 0% and the pest or weed control at 500 g/ha [14, 18] was 30%.
